{"source": "patent US20190022167A1", "about": "“METHODS AND COMPOSITIONS FOR THE PREVENTION AND TREATMENT OF DUCHENNE MUSCULAR DYSTROPHY” (priority 2016, published 2019)", "key": {"[1]": {"tested_on": "several mammalian cell types", "conditions": "cited from earlier work"}, "[2]": {"tested_on": "subjects at risk of having DMD", "assay": "Prevention of DMD in humans (Example 2)", "assay_type": "in vivo, human", "conditions": "for Effect of combination with one or more additional therapeutic agents: compared to peptides or additional agents alone, expected; for Onset of DMD: daily 1%, 5% or 10% solution, predicted", "text": "Subjects at risk of having DMD receive daily administrations of 1%, 5% or 10% solution of aromatic-cationic peptide, such as 2′6′-Dmt-D-Arg-Phe-Lys-NH2, Phe-D-Arg-Phe-Lys-NH2, or D-Arg-2′6′-Dmt-Lys-Phe-NH2, or a pharmaceutically acceptable salt thereof, such as acetate, tartrate, hydrochloride salt, or trifluoroacetate salt, alone or in combination with one or more additional therapeutic agents for the treatment or prevention of DMD. Peptides and/or additional therapeutic agents selected from the group consisting of: corticosteroids, Oxandrolone, ACE inhibitors, P188 (Poloxamer 188), beta-blockers, diuretics, angiotensin receptor blockers (ARBs), idebenone, alendronate, calcium with vitamin D, albuterol, dantrolene, pentoxifylline, carnitine, Coenzyme Q10, creatine, fish oil, green tea extracts, Vitamin E, PTC-124 (PTC Therapeutics Inc., South Plainfield, N.J.), AVI-4658 phosphorodiamidate morpholino oligomer, azathioprine and cyclosporine, are administered orally, topically, systemically, intravenously, subcutaneously, intraperitoneally, or intramuscularly according to methods known in the art. Dosages of the one or more additional therapeutic agents will range between 0.1 mg/kg to 50 mg/kg. Subjects will be evaluated weekly for the presence and/or severity of signs and symptoms associated with DMD, including, but not limited to, e.g., progressive proximal weakness with onset in the legs and pelvis, hyperlordosis with wide-based gait, hypertrophy of weak muscles, pseudohypertrophy (enlargement of calf and deltoid muscles with fat and fibrotic tissue), reduced muscle contractility on electrical stimulation in advanced stages of the disease, delayed motor milestones, progressive inability to ambulate, heel cord contractures, paralysis, fatigue, skeletal deformities including scoliosis, muscle fiber deformities, cardiomyopathy, congestive heart failure or arrhythmia, muscular atrophy, and respiratory disorders."}, "[3]": {"tested_on": "subjects suspected of having or diagnosed as having DMD", "assay": "Treatment of DMD in humans (Example 1)", "assay_type": "in vivo, human", "conditions": "for Effect of combination with one or more additional therapeutic agents: compared to peptides or additional agents alone, expected; for Severity of symptoms associated with DMD: daily 1%, 5% or 10% solution, predicted", "text": "Subjects suspected of having or diagnosed as having DMD receive daily administrations of 1%, 5% or 10% solution of aromatic-cationic peptide, such as 2′6′-Dmt-D-Arg-Phe-Lys-NH2, Phe-D-Arg-Phe-Lys-NH2, or D-Arg-2′6′-Dmt-Lys-Phe-NH2, or a pharmaceutically acceptable salt thereof, such as acetate, tartrate, hydrochloride salt, or trifluoroacetate salt, alone or in combination with one or more additional therapeutic agents for the treatment or prevention of DMD. Peptides and/or additional therapeutic agents selected from the group consisting of: corticosteroids, Oxandrolone, ACE inhibitors, P188(Poloxamer 188), beta-blockers, diuretics, angiotensin receptor blockers (ARBs), idebenone, alendronate, calcium with vitamin D, albuterol, dantrolene, pentoxifylline, carnitine, Coenzyme Q10, creatine, fish oil, green tea extracts, Vitamin E, PTC-124 (PTC Therapeutics Inc., South Plainfield, N.J.), AVI-4658 phosphorodiamidate morpholino oligomer, azathioprine and cyclosporine, are administered orally, topically, systemically, intravenously, subcutaneously, intraperitoneally, or intramuscularly according to methods known in the art. Dosages of the one or more additional therapeutic agents will range between 0.1 mg/kg to 50 mg/kg. Subjects will be evaluated weekly for the presence and/or severity of signs and symptoms associated with DMD, including, but not limited to, e.g., progressive proximal weakness with onset in the legs and pelvis, hyperlordosis with wide-based gait, hypertrophy of weak muscles, pseudohypertrophy (enlargement of calf and deltoid muscles with fat and fibrotic tissue), reduced muscle contractility on electrical stimulation in advanced stages of the disease, delayed motor milestones, progressive inability to ambulate, heel cord contractures, paralysis, fatigue, skeletal deformities including scoliosis, muscle fiber deformities, cardiomyopathy, congestive heart failure or arrhythmia, muscular atrophy, and respiratory disorders. Treatments are maintained until such a time as one or more signs or symptoms of DMD are ameliorated or eliminated."}, "DBA/2J-mdx mice [4]": {"tested_on": "DBA/2J-mdx mice", "assay": "Left ventricular mitochondrial respiration in permeabilized muscle fiber bundles (high-resolution respirometry, Oroboros Oxygraph) after 12 weeks of treatment", "assay_type": "in vivo, mouse", "conditions": "5 mg/kg daily subcutaneous for 12 weeks; for ADP, complex I-supported respiration: treated DMD mice", "protocol": "(§1) Left ventricular mitochondrial H2O2 emission (measured by spectrofluorometry; Amplex UltraRed fluorophore) and respiration (measured by high-resolution respirometry; Oroboros Oxygraph) were assessed in permeabilized muscle fiber bundles (PmFB) from DBA/2J-mdx mice (DMD mice) that were about 4 weeks of age, DBA/2J wildtype mice (wt mice) that were about 4 weeks of age, DMD mice treated with daily subcutaneous injections of Phe-D-Arg-Phe-Lys-NH2 (5mg/kg) for 12 weeks (treated DMD mice), and DMD mice treated with daily subcutaneous injections of […] for 12 weeks (untreated DMD mice). H2O2 emission was measured in the presence of physiological ADP (25 μM). ADP is a suppressor of H2O2 emission during respiration and is affected by the phosphate-shuttling activity of mitochondrial creatine kinase (mtCK). The effect of mtCK was assessed by saturating creatine (Cr) in vitro."}, "DBA/2J-mdx mice [5]": {"tested_on": "DBA/2J-mdx mice", "assay": "Left ventricular mitochondrial H2O2 emission in permeabilized muscle fiber bundles (spectrofluorometry, Amplex UltraRed) after 12 weeks of treatment", "assay_type": "in vivo, mouse", "conditions": "5 mg/kg daily subcutaneous for 12 weeks", "protocol": "as §1"}}, "note": "Where no end group is shown, it is not given here. [ ]: non-standard residue; d: D form."}
{"substance": "2′6′-Dmt-D-Arg-Phe-Lys-NH2", "values": [{"measurement": "Penetration of the plasma membrane", "setting": "[1]", "result": "readily penetrates the plasma membrane of several mammalian cell types in an energy-independent manner"}, {"measurement": "Effect of combination with one or more additional therapeutic agents", "setting": "[2]", "result": "synergistic effects"}, {"measurement": "Onset of DMD", "setting": "[2]", "result": "delayed onset of DMD, or prevention of onset of DMD"}, {"measurement": "Effect of combination with one or more additional therapeutic agents", "setting": "[3]", "result": "synergistic effects"}, {"measurement": "Severity of symptoms associated with DMD", "setting": "[3]", "result": "reduced severity or elimination of symptoms associated with DMD"}]}
{"substance": "D-Arg-2′6′-Dmt-Lys-Phe-NH2", "values": [{"measurement": "Effect of combination with one or more additional therapeutic agents", "setting": "[2]", "result": "synergistic effects"}, {"measurement": "Onset of DMD", "setting": "[2]", "result": "delayed onset of DMD, or prevention of onset of DMD"}, {"measurement": "Effect of combination with one or more additional therapeutic agents", "setting": "[3]", "result": "synergistic effects"}, {"measurement": "Severity of symptoms associated with DMD", "setting": "[3]", "result": "reduced severity or elimination of symptoms associated with DMD"}]}
{"substance": "F[dR]FK-NH2", "values": [{"measurement": "Respiration, treated vs untreated DMD mice", "setting": "DBA/2J-mdx mice [4]; +Cr or —Cr", "result": "did not change respiration"}, {"measurement": "ADP, complex I-supported respiration", "setting": "DBA/2J-mdx mice [4]; +Cr", "result": "111.4+/−12.0 pmol•s^−1•mg wet wt^−1"}, {"measurement": "ADP, complex I-supported respiration", "setting": "DBA/2J-mdx mice [4]; —Cr", "result": "59.6+/−7.4 pmol•s^−1•mg wet wt^−"}, {"measurement": "Effect of combination with one or more additional therapeutic agents", "setting": "[2]", "result": "synergistic effects"}, {"measurement": "Onset of DMD", "setting": "[2]", "result": "delayed onset of DMD, or prevention of onset of DMD"}, {"measurement": "Effect of combination with one or more additional therapeutic agents", "setting": "[3]", "result": "synergistic effects"}, {"measurement": "Severity of symptoms associated with DMD", "setting": "[3]", "result": "reduced severity or elimination of symptoms associated with DMD"}, {"measurement": "mtCK-dependent ADP suppression of H2O2 emission, treated vs untreated DMD mice", "setting": "DBA/2J-mdx mice [5]", "result": "improved"}, {"measurement": "ADP-suppression of Complex I-supported H2O2, % of emission at 0 μM ADP/O2 consumed", "setting": "DBA/2J-mdx mice [5]; +Cr, 25 μM ADP, treated DMD mice", "result": "12+/−1%"}, {"measurement": "ADP-suppression of Complex I-supported H2O2, % of 0 μM ADP/O2 consumed", "setting": "DBA/2J-mdx mice [5]; —Cr, 25 μM ADP, treated DMD mice", "result": "40+/−11%"}]}
